The target in series [1] is T1, Heat shock protein HSP90 (Homo sapiens, UniProt P07900+P08238). It counts as cell-based. To be noted: au565.
Series [2] can be described thus: Binding affinity to pig spleen Hsp90 ATPase pocket by Bradford assay. The format is tissue-based, Sus scrofa.
The test system of series [3] is A-375. As to the kind of experiment: Antiproliferative activity against human A375 cells after 72 to 144 hrs by cyquant DNA dye method. The format is functional, cell-based.
Series [4] relates to LNCaP. As to the kind of experiment: Antiproliferative activity against human LNCAP cells after 72 to 144 hrs by cyquant DNA dye method. The format is functional, cell-based.
Series [5] has as its system MCF7. Briefly: Antiproliferative activity against human MCF7 cells after 72 to 144 hrs by cyquant DNA dye method. It counts as functional, cell-based.
Series [6] deals with HT-29. As to the kind of experiment: Antiproliferative activity against human HT-29 cells after 72 to 144 hrs by cyquant DNA dye method. It counts as functional, cell-based.
For series [7], the system named is SW-620. As to the kind of experiment: Antiproliferative activity against human SW620 cells after 72 to 144 hrs by cyquant DNA dye method. It counts as functional, cell-based.
The subject of series [8] is SK-MEL-5. Briefly: Antiproliferative activity against human SK-MEL-5 cells after 72 to 144 hrs by cyquant DNA dye method. The format is functional, cell-based.
The subject of series [9] is PC-3. Briefly: Antiproliferative activity against human PC3 cells after 72 to 144 hrs by cyquant DNA dye method. The format is functional, cell-based.
Series [10] has as its system MDA-MB-231. As to the kind of experiment: Antiproliferative activity against human MDA-MB-231 cells after 72 to 144 hrs by cyquant DNA dye method. It counts as functional, cell-based.
For series [11], the system named is NCI-H460. Briefly: Antiproliferative activity against human NCI-H460 cells after 72 to 144 hrs by cyquant DNA dye method. It counts as functional, cell-based.
The subject of series [12] is HCT-15. As to the kind of experiment: Antiproliferative activity against human HCT15 cells after 72 to 144 hrs by cyquant DNA dye method. It counts as functional, cell-based.
The test system of series [13] is K562. As to the kind of experiment: Antiproliferative activity against human K562 cells after 72 to 144 hrs by cyquant DNA dye method. It counts as functional, cell-based.
Series [14] can be described thus: Oral bioavailability in mouse. The format is ADME, organism-based. To be noted: in vivo.
The test system of series [15] is Liver microsomes. Briefly: Metabolic stability in human liver microsomes at 1 uM after 1 hr. It counts as ADME, Microsome. (Liver microsomes are a subcellular fraction often used to study metabolism.)
The nature of series [16]: Metabolic stability in human liver S9 fraction assessed as drug remaining at 1 uM after 1 hr. The format is ADME, subcellular. To be noted: read-out: Stability.
The nature of series [17]: Solubility of the compound. The format is physicochemical.
Series [18] can be described thus: Aqueous solubility in phosphate-buffered saline at pH 7.4. The format is physicochemical.
A short description of series [19]: Oral bioavailability in rat. The note with it: in vivo. It counts as ADME, organism-based.
Series [20] addresses T1, Heat shock protein HSP90. The note with it: a-375.
Description: Inhibition of Hsp90 in human A375 cells assessed as Hsp70 induction after 24 hrs by high content screening
The target in series [21] is T1, Heat shock protein HSP90. The note with it: a-375. The source holds these as a separate data set.
Description: Inhibition of Hsp90 in human A375 cells assessed as pS6 degradation after 24 hrs by high content screening
Series [22] concerns the target T1, Heat shock protein HSP90. The note with it: au565.
Description: Inhibition of Hsp90 in human AU565 cells assessed as pERK degradation after 24 hrs by high content screening

Converted amounts (≈) assume the structure as drawn. A value given as a limit tells only on which side of the number the result lay.

Experimental findings from ChEMBL document CHEMBL1158466, “Discovery of novel 2-aminobenzamide inhibitors of heat shock protein 90 as potent, selective and orally active antitumor agents” (J Med Chem, 2009) are described below.

In the case of `Cc1cc2c(n1-c1ccc(C(N)=O)c(Sc3ccccc3)c1)CC(C)(C)CC2=O`, the IC50 (commonly the concentration at which inhibition is half-maximal) in series [1] is over 10000 nM. The Kd (as a rule, a measure of binding affinity in units of concentration) in series [2] came to 1060 nM.
For `Cc1c2c(n(-c3ccc(C(N)=O)c(N[C@H]4CC[C@H](O)CC4)c3)c1C)CC(C)(C)CC2=O`, in that order: 64 nM and 86 nM.
For the compound `C=CCNC1=C2C[C@@H](C)C[C@H](OC)[C@H](O)[C@@H](C)/C=C(\C)[C@H](OC(N)=O)[C@@H](OC)/C=C\C=C(/C)C(=O)NC(=CC1=O)C2=O` [TANESPIMYCIN], in series [2], the Kd was determined as 87 nM. For the same compound, the IC50 in series [3] stood at 1290 nM; in [4] it was 82 nM; in series [5], 0.3 nM; in series [6], 0.1 nM; in series [7], 328 nM; in series [8], 134 nM. For the same compound, the IC50 in [9] came to 9 nM; in series [10], 194 nM; in [11], 255 nM; in [12], 1490 nM; in [13] it was 126 nM.
Consider `Cc1nn(-c2ccc(C(N)=O)c(NC3CCOCC3)c2)c2c1C(=O)CC(C)(C)C2`, for which, in [1], the IC50 is 50 nM. Besides, the affinity in series [2], expressed as Kd, was 43 nM.
For `CCCCCc1cc(-n2c(C)cc3c2CC(C)(C)CC3=O)ccc1C(N)=O`, in that order: over 10000 nM and 1960 nM.
Regarding `Cc1cc2c(n1-c1ccc(C(N)=O)cc1)CC(C)(C)CC2=O`, in series [1], the IC50 was over 100000 nM. Further, binding in series [2] was put at a Kd of 3730 nM.
For `CC1(C)CC(=O)c2c(C(F)(F)F)nn(-c3ccc(C(N)=O)c(NCCCN4CCCC4=O)c3)c2C1`, in that order: 264 nM and 94 nM.
For `Cc1nn(-c2ccc(C(N)=O)c(NC3CC=CC3)c2)c2c1C(=O)CC(C)(C)C2`, in that order: 111 nM and 15 nM.
In series [1], `Cc1nn(-c2ccc(C(N)=O)c(NCc3ccco3)c2)c2c1C(=O)CC(C)(C)C2` gave an IC50 of over 1000 nM. The compound further showed a Kd in series [2] of 216 nM.
For `Cc1cc2c(n1-c1ccc(C(N)=O)c(Nc3ccccc3)c1)CC(C)(C)CC2=O`, in that order: 6400 nM and 370 nM.
For `CC1(C)CC(=O)c2c(CC3CC3)nn(-c3ccc(C(N)=O)c(N[C@H]4CC[C@H](O)CC4)c3)c2C1`, in that order: 46 nM and 41 nM.
For `COc1cc(Nc2cc(-n3ccc4c3CC(C)(C)CC4=O)ccc2C(N)=O)cc(OC)c1OC`, in that order: 1830 nM and 0.59 nM.
In turn, `CSCCNc1cc(-n2nc(C)c3c2CC(C)(C)CC3=O)ccc1C(N)=O` had an IC50 in series [1] of 226 nM. Also, the Kd in series [2] stood at 63 nM.
In turn, `Cc1nn(-c2ccc(C(N)=O)c(NC(C)S(C)(=O)=O)c2)c2c1C(=O)CC(C)(C)C2` (stereo unspecified) yielded an IC50 in series [1] of 147 nM. In series [2], this compound displayed a Kd of 14 nM.
`COCCNc1cc(-n2c(C)cc3c2CC(C)(C)CC3=O)ccc1C(N)=O` displayed an IC50 in series [1] of over 10000 nM. In series [2], this compound gave a Kd of 390 nM.
For `CC1(C)CC(=O)c2c(C(F)(F)F)nn(-c3ccc(C(N)=O)c(N[C@H]4CC[C@H](O)CC4)c3)c2C1` [SNX-2112], the bioavailability – broadly, dose-corrected exposure relative to a reference, in per cent – in series [14] was 40%. The equilibrium dissociation constant (Kd) in [2] is 16 nM. The IC50 was determined as 23 nM in [3]; 3 nM in series [4]; 53 nM in series [5]; 3 nM in series [6]; 3 nM in series [7]; 6 nM in [8]. For the same compound, the IC50 in series [9] amounted to 17 nM; in series [10], 6 nM; in [11], 18 nM; in [12] it was 52 nM; in series [13] it was 6 nM. Moreover, in series [15], the Stability entry is “Stable”. Moreover, the remaining at 1 h, 1 µM in series [16] came to 88%. In addition, the solubility (usually how much of the substance goes into solution per volume) amounted to 170 µM (≈ 79 µg/mL) in [17] and 6 µM (≈ 2.79 µg/mL) in series [18].
For `CCc1nn(-c2ccc(C(N)=O)c(N[C@H]3CC[C@H](O)CC3)c2)c2c1C(=O)CC(C)(C)C2`, in [1], the IC50 was 9 nM. In series [2], this compound showed a dissociation constant Kd of 20 nM.
For `COc1ccc(Nc2cc(-n3c(C)cc4c3CC(C)(C)CC4=O)ccc2C(N)=O)cc1`, in that order: 1590 nM and 690 nM.
In series [1], `Cc1cn(-c2ccc(C(N)=O)c(N3CCNCC3)c2)c2c1C(=O)CC(C)(C)C2` yielded an IC50 of over 7000 nM. In addition, binding in [2] was characterised by a dissociation constant (Kd) of 843 nM.
For `COc1cc(Nc2cc(-n3c(C)cc4c3CC(C)(C)CC4=O)ccc2C(N)=O)cc(OC)c1OC`, in that order: 490 nM and 220 nM.
For `COc1cc(Nc2cc(-n3cc(C)c4c3CCCC4=O)ccc2C(N)=O)cc(OC)c1OC`, in that order: 1610 nM and 940 nM.
For `Cc1cn(-c2ccc(C(N)=O)c(N[C@H]3CC[C@H](O)CC3)c2)c2c1C(=O)CC(C)(C)C2`, the IC50 is 7 nM in series [1]; 9 nM in [3]; 4 nM in series [4]; 10 nM in [5]; 7 nM in series [6]; 6 nM in series [7]. In addition, the IC50 is 7 nM in series [8]; 14 nM in [9]; 10 nM in [10]; 248 nM in series [11]; 61 nM in [12]; 3 nM in series [13]. The IC50 in series [20] was found to be 14 nM; in series [21], 7 nM; in series [22], 16 nM. The bioavailability in [19] stood at 10%. This compound showed a Kd in series [2] of 27 nM.
As to `CC(C)c1nn(-c2ccc(C(N)=O)c(N[C@H]3CC[C@H](O)CC3)c2)c2c1C(=O)CC(C)(C)C2`, in [1], the IC50 turned out to be 203 nM. This compound had a Kd in series [2] of 177 nM.
For `COc1cc(Nc2cc(-n3cc(C)c4c3CC(C)(C)CC4=O)ccc2C(N)=O)cc(OC)c1OC`, in that order: 46 nM and 390 nM.
As for `Cc1cn(-c2ccc(C(N)=O)c(N[C@@H](C)c3ccccc3)c2)c2c1C(=O)CC(C)(C)C2`, in [1], the IC50 was 418 nM. In addition, the Kd in series [2] was determined as 1020 nM.
For `CC1(C)CC(=O)c2c(C(F)F)nn(-c3ccc(C(N)=O)c(N[C@H]4CC[C@H](O)CC4)c3)c2C1`, in that order: 16 nM and 98 nM.
Turning to `CC1(C)CC(=O)c2c(C(F)(F)F)nn(-c3ccc(C(N)=O)c(N[C@H]4CC[C@@H](O)CC4)c3)c2C1`, the Kd in series [2] turned out to be 530 nM.
As to `Cc1nn(-c2ccc(C(N)=O)c(NC3CCC3)c2)c2c1C(=O)CC(C)(C)C2`, the IC50 in series [1] came to 229 nM. Besides, binding in series [2] was put at a Kd of 114 nM.
For `COCC(C)Nc1cc(-n2nc(C)c3c2CC(C)(C)CC3=O)ccc1C(N)=O` (stereo unspecified), in that order: 115 nM and 67 nM.
In [1], `Cc1nn(-c2ccc(C(N)=O)c(N[C@H]3CC[C@H](O)CC3)c2)c2c1C(=O)CC(C)(C)C2` registered an IC50 of 30 nM. The compound also yielded a Kd in series [2] of 16 nM.
For `Cc1nn(-c2ccc(C(N)=O)c(NCC3CC3)c2)c2c1C(=O)CC(C)(C)C2`, in that order: 184 nM and 51 nM.
For the compound `COCC(COC)Nc1cc(-n2nc(C(F)(F)F)c3c2CC(C)(C)CC3=O)ccc1C(N)=O`, 181 nM corresponded to half-maximal inhibition in series [1] (IC50). The compound further returned a Kd in [2] of 78 nM.
For `CCCCNc1cc(-n2c(C)cc3c2CC(C)(C)CC3=O)ccc1C(N)=O`, in that order: over 10000 nM and 390 nM.
For `CC1(C)CC(=O)c2c(C(F)F)nn(-c3ccc(C(N)=O)c(NC4CCSCC4)c3)c2C1`, in that order: 35 nM and 11 nM.
For `Cc1cn(-c2ccc(C(N)=O)c(NCCN3CCOCC3)c2)c2c1C(=O)CC(C)(C)C2`, in that order: over 4000 nM and 294 nM.
With `CCCCOc1cc(-n2c(C)cc3c2CC(C)(C)CC3=O)ccc1C(N)=O`, the IC50 in series [1] was over 10000 nM. The compound also yielded a Kd in series [2] of over 50000 nM.
